In ChEMBL document CHEMBL4184200, “Benzimidazole design, synthesis, and docking to build selective carbonic anhydrase VA inhibitors” (Bioorg Med Chem, 2018):

Assay: physchem

pKa	SMILES
8.8	NS(=O)(=O)c1cc(C(=O)Nn2cnc3ccccc32)c(SC2CCCCC2)cc1Cl
8.8	NS(=O)(=O)c1cc(C(=O)Cn2ccnc2-c2ccccc2)ccc1Cl
8.8	NS(=O)(=O)c1cc(C(=O)CN2CCc3ccccc32)ccc1Cl
8.8	NS(=O)(=O)c1cc(C(=O)Cn2cnc(-c3ccccc3)c2-c2ccccc2)ccc1Cl
8.8	NS(=O)(=O)c1cc(C(=O)Cn2cnc3ccccc32)ccc1Cl
8.8	CCc1nc2ccccc2n1CC(=O)c1ccc(Cl)c(S(N)(=O)=O)c1
8.3	NS(=O)(=O)c1cc(C(=O)Nn2cnc3ccccc32)c(Cl)cc1Cl
8.8	NS(=O)(=O)c1cc(C(=O)Cn2cnc3ccccc32)c(SCCc2ccccc2)cc1Cl
8.8	Cc1nc2ccccc2n1CC(=O)c1ccc(Cl)c(S(N)(=O)=O)c1
8.8	Cc1cc2ncn(CC(=O)c3cc(S(N)(=O)=O)c(Cl)cc3Sc3ccccc3)c2cc1C
8.8	CC1Cc2ccccc2N1NC(=O)c1ccc(Cl)c(S(N)(=O)=O)c1 (centres undefined) [INDAPAMIDE]
8.3	NS(=O)(=O)c1cc(C(=O)Cn2cnc3ccccc32)c(Cl)cc1Cl
8.8	CCc1nccn1CC(=O)c1ccc(Cl)c(S(N)(=O)=O)c1
8.3	NS(=O)(=O)c1cc(C(=O)Cn2ccnc2)c(Cl)cc1Cl
8.3	Cc1cc2ncn(CC(=O)c3cc(S(N)(=O)=O)c(Cl)cc3Cl)c2cc1C
8.8	NS(=O)(=O)c1cc(C(=O)Nn2cnc3ccccc32)c(Sc2ccccc2)cc1Cl
8.8	NS(=O)(=O)c1cc(C(=O)CN2CCCc3ccccc32)ccc1Cl
8.8	Cc1cc2ncn(CC(=O)c3ccc(Cl)c(S(N)(=O)=O)c3)c2cc1C
8.8	NS(=O)(=O)c1cc(C(=O)Cn2ccnc2)ccc1Cl
